# Tests used:
# Type in all cases: physicochemical
# [1] = Solid storage stability test; conditions: for Original morphology / Original purity: original solid before storage; for chemical and physical stability after storage (summary): solid/25° C./60% RH/open/1 week and/or solid/60° C./closed container/1 week
# Protocol: Each amorphous salt solid was weighed (two 2 mg samples were weighed for purity testing after solid storage stability study, and one 10 mg sample was weighed for XRPD testing after solid storage stability study) and placed in a glass vial. In a 25° C./60% RH solid storage stability test, the amorphous salt solid was placed in a 25° C./60% RH constant temperature and humidity chamber, and placed in the dark for 1 week (i.e. “solid/25° C./60% RH/open/1 week”), and in a 60° C. solid storage stability test, the amorphous salt solid was sealed in an oven at 60° C. and heated for 1 week in the dark (i.e. “solid/60° C./closed container/l week”). Then the sample was taken out for purity testing, crystal form detection and appearance observation, respectively.
# [2] = Solid solubility test (2 h and 24 h); conditions: for Solubility measured at 2 h: 37° C., based on free base; for XRPD measured at 2 h: state of sample / solid fraction
# Protocol: samples were weighed for each amorphous salt solid (equivalent to 20 mg of free base), and 10 mL of the following solvents were respectively added: 0.1N HCl solution (pH 1.0), 50 mM phosphate buffer (pH 4.5), FeSSIF-V1 (pH 5.0), FaSSIF-V1 (pH 6.5) and SGF (pH 2.0), […] The suspension was then centrifuged at 37° C., the supernatant was measured for solubility by HPLC, and the solid fraction was measured for XRPD. The target solubility was at least 2 mg (based on free base)/mL.
# [3] = Chemical and physical stability of the salts at the end of the preparation
# Description: It is crucial for drug development whether the salts obtained as above have chemical and physical stability at the end of the preparation. The chemical and physical stability of the salts at the end of the preparation includes: […]
# [4] = Test BS1: solid/25° C./60% RH/open/1 week
# [5] = listed as 1 eq. hydrochloride salt
# [6] = listed as amorphous 1 eq. hydrochloride salt
# [7] = solid/60° C./closed container/1 week (Test BS1)
# [8] = FaSSIF-V1 (pH 6.5) (Test ES4, partly printed ES1)
# [9] = Test ES1: 0.1N HCl solution (pH 1.0)
# [10] = Test ES2: 50 mM phosphate buffer (pH 4.5)
# [11] = listed as amorphous 2 eq. mesylate salt
SMILES,"Purity [1, 4]",Original morphology [1],Original purity [1],"Purity [1, 7]","pH measured at 2 h [2, 8]","Solubility measured at 2 h [2, 8]","XRPD measured at 2 h [2, 8]","pH measured at 2 h [2, 9]","Solubility measured at 2 h [2, 9]","XRPD measured at 2 h [2, 9]","pH measured at 2 h [2, 10]","Solubility measured at 2 h [2, 10]","XRPD measured at 2 h [2, 10]",pH measured at 2 h ([2]; Test ES3: FeSSIF-V1 (pH 5.0)),Solubility measured at 2 h ([2]; Test ES3: FeSSIF-V1 (pH 5.0)),XRPD measured at 2 h ([2]; Test ES3: FeSSIF-V1 (pH 5.0)),pH measured at 2 h ([2]; Test ES5: SGF (pH 2.0)),Solubility measured at 2 h ([2]; Test ES5: SGF (pH 2.0)),XRPD measured at 2 h ([2]; Test ES5: SGF (pH 2.0)),also measured
C=CC(=O)Nc1cc(Nc2ncnc(-c3cn(C)c4ccccc34)n2)c(OC)cc1N(C)CCN(C)C [Example 2],99.9%,amorphous,99.9%,98.2%,(6.5),>2000 µg/mL,clear solution,(0.7),>2000 µg/mL,clear solution,(4.5),>2000 µg/mL,clear solution,(4.8),>2000 µg/mL,clear solution,(2.0),>2000 µg/mL,clear solution,"chemical and physical stability after storage (summary) [1, 5]: chemically unstable; chemical and physical stability after storage (summary) [1, 6]: chemically unstable; physical and chemical stability under storage (in words) ([1]; solid/25° C./60% RH/open/1 week, listed as amorphous 1 eq. hydrochloride salt): good physical and chemical stability; decrease in purity ([1]; solid/60° C./closed container/1 week): about 2%; solubility at 2 h ([2]; 37 °C, thermodynamic from solid, 2 h solid solubility test, all five solvents, read-out: solubility in all solvents tested): > 2000 µg/mL; chemical and physical stability at the end of the preparation [3, 5]: chemically and physically stable; chemical and physical stability at the end of the preparation [3, 6]: chemically and physically stable"
C=CC(=O)Nc1cc(Nc2ncnc(-c3cn(C)c4ccccc34)n2)c(OC)cc1N(C)CCN(C)C [Example 5],99.9%,amorphous,99.9%,99.8%,(6.2),>2000 µg/mL,clear solution,(0.7),>2000 µg/mL,clear solution,(4.2),>2000 µg/mL,clear solution,(4.8),>2000 µg/mL,clear solution,(1.8),>2000 µg/mL,clear solution,"chemical and physical stability after storage (summary) ([1]; listed as 2 eq. mesylate salt): physically unstable; chemical and physical stability after storage (summary) [1, 11]: physically unstable; physical and chemical stability under storage (in words) ([1]; solid/25° C./60% RH/open/1 week, listed as amorphous 2 eq. mesylate salt): transformed from amorphous to a low crystallinity and showed a certain hygroscopicity (agglomeration); physical and chemical stability under storage (in words) ([1]; solid/60° C./closed container/1 week, listed as amorphous 2 eq. mesylate salt): a certain hygroscopicity (partial agglomeration); chemical and physical stability at the end of the preparation ([3]; listed as 2 eq. mesylate salt): chemically and physically stable; chemical and physical stability at the end of the preparation [3, 11]: chemically and physically stable"

# — patent publication US20230234941A1, “Salts of Compound and Pharmaceutical Compositions Containing the Same” (Shenzhen Forward Pharmaceuticals Co., Limited., priority 2020, published 2023)
